Assay results reported in US7060273B2, “Methods for inhibiting HIV-1 infection” (priority 2001, dated 2006).

What was measured:
[1] = system: fusion between HeLa-EnvJR-FL and PM1 cells
Method: HIV-1 envelope-mediated fusion between HeLa-EnvJR-FL and PM1 cells was detected using a Resonance Energy Transfer (RET) assay.
HIV-1 inhibition data were analyzed according to the Combination Index method of Chou and Talay. The data are modeled according to the median-effect principle, which can be written f=1/[1+(K/c)^m] (1) where f is the fraction affected/inhibited, c is concentration, K is the concentration of agent required to produce the median effect, and m is an empirical coefficient describing the shape of the dose-response curve. Equation (1) is a generalized form of the equations describing Michaelis-Menton enzyme kinetics, Langmuir adsorption isotherms, and Henderson-Hasselbalch ionization equilibria, for which m=1 in all cases. In the present case, K is equal to the IC50 value. K and m are determined by curve-fitting the dose-response curves.
After the best-fit parameters for K and m are obtained for the experimental agents and their combination, Equation (1) is rearranged to allow for calculation of c for a given f.
All concentrations are those required to achieve a given degree of inhibition. Equation (2) is used when the molecules are mutually nonexclusive, i.e., have different sites of action. Since this is the likely scenario for inhibitors of HIV-1 attachment and gp41 fusion intermediates, Equation (2) was used for all Combination Index calculations. […] CI<1 indicates synergy, CI=1 indicates purely additive effects, and CI>1 indicates antagonism. In general, CI values are most relevant at the higher levels of inhibition that are required to achieve a measurable clinical benefit.

HIV = settings: human, in vivo; cited from earlier work

Substance: enfuvirtide
- concentration of the agent contained in the combination giving 95% inhibition ([1]; 25:1 CD4-IgG2:T-20 mass ratio): 0.044 µg/mL
- dose reduction by the combination ([1]; 95% inhibition, 25:1 mass ratio): 5 fold
- K (equal to IC50), best-fit median effect parameter ([1]; FIG. 8, combination 25:1 CD4-IgG2:T-20): 0.017 µg/mL
- concentration required for inhibition of viral entry by 95% ([1]; agent used alone, or total of 25:1 mass ratio combination): 0.21 µg/mL
- reduction of plasma HIV RNA levels (HIV): ≤ 2 logs
